Measurements published in US12570657B2, “Mesylate salts of heterocyclic cytokinins, compositions containing these derivatives and use thereof” (UNIVERZITA PALACKEHO V OLOMOUCI, priority 2020, dated 2026).
pIC50: −log10 of the molar value.

tested on: HOS (human osteosarcoma); assay: In vitro cytotoxicity, Calcein AM assay, HOS; assay type: cell-based; conditions: Homo sapiens, 72 h, 3-day Calcein-AM assay
Excerpt: Because toxic compounds adversely affect cell metabolic processes, many standard cytotoxicity assays are based on measuring the rate of metabolism of various artificial substrates. The resulting product is then quantified, for example, by spectrometry. Assays can be easily modified for use in 96-well plates, A microtiter assay based on the quantification of Calcein AM metabolism was used to evaluate the cytotoxicity of cytokinins, for example meta-topolin, ortho-topolin, kinetin, BAP or its mesylate salts, but also a number of other cytokinin mesylate derivatives according to the invention. The test is widely used in drug screening programs and in chemosensitivity testing. In living cells, Calcein AM is enzymatically hydrolyzed and the accumulation of the resulting calcein is manifested by green fluorescence. […] These cells were maintained in standard DMEM or RPMI medium (Sigma, MO, USA) supplemented with heat-inactivated fetal bovine serum (10%) with 2 mM L-glutamine and penicillin-streptomycin (1%) under standard cell culture conditions (37° C., 5% CO2 in a humid environment) and subcultured two or three times a week using a standard trypsinization procedure. Approximately 10,000 cells in 80 μl of medium were seeded in a 96-well microtiter plate. After 12 hours of incubation, the compounds to be tested were added in 20 μl aliquots. Control cultures were treated with DMSO alone. […] After 72 hours of incubation, Calcein AM solution (Molecular Probes) was added to a final concentration of 1 μg/ml and the cells were incubated for another hour.
Cytoxicity of compounds was tested on panel of cell lines of different histogenetic and species origin.

SMILES | pIC50
Oc1ccccc1CNc1ncnc2nc[nH]c12 [ortho-topolin (oT), 6-(2-hydroxybenzylamino)purine] | < 3.78
Oc1cccc(CNc2ncnc3nc[nH]c23)c1 [meta-topolin (mT), 6-(3-hydroxybenzylamino)purine] | < 3.78
c1ccc(CNc2ncnc3nc[nH]c23)cc1 [BAP, 6-benzylaminopurine] | < 3.78
COc1cccc(CNc2ncnc3nc[nH]c23)c1 [3MeOBAP, 6-(3-methoxybenzylamino)purine] | < 3.78

tested on: NIH-3T3; assay: In vitro cytotoxicity, Calcein AM assay, NIH-3T3; assay type: cell-based; conditions: Mus musculus, NIH3T3, 72 h, 3-day Calcein-AM assay
Excerpt: Because toxic compounds adversely affect cell metabolic processes, many standard cytotoxicity assays are based on measuring the rate of metabolism of various artificial substrates. The resulting product is then quantified, for example, by spectrometry. Assays can be easily modified for use in 96-well plates, A microtiter assay based on the quantification of Calcein AM metabolism was used to evaluate the cytotoxicity of cytokinins, for example meta-topolin, ortho-topolin, kinetin, BAP or its mesylate salts, but also a number of other cytokinin mesylate derivatives according to the invention. The test is widely used in drug screening programs and in chemosensitivity testing. In living cells, Calcein AM is enzymatically hydrolyzed and the accumulation of the resulting calcein is manifested by green fluorescence. The following cell lines—RPMI 8226 (multiple myeloma), CEM (T-lymphoblastic leukemia), K562 (chronic myeloid leukemia), HL-60 (promyelocytic, leukemia), MCF-7 (breast adenocarcinoma), HeLa (cervical cancer), G361 (malignant melanoma), HOS (human osteosarcoma) and BJ (human foreskin fibroblasts)—were obtained from the American Type Culture Collection (Manassas, VA, USA). These cells were maintained in standard DMEM or RPMI medium (Sigma, MO, USA) supplemented with heat-inactivated fetal bovine serum (10%) with 2 mM L-glutamine and penicillin-streptomycin (1%) under standard cell culture conditions (37° C., 5% CO2 in a humid environment) and subcultured two or three times a week using a standard trypsinization procedure. Approximately 10,000 cells in 80 μl of medium were seeded in a 96-well microtiter plate. After 12 hours of incubation, the compounds to be tested were added in 20 μl aliquots. Control cultures were treated with DMSO alone. […] Serial, 3-fold dilutions (six in total, peak concentrations in 166 μM incubations) of each compound were tested. After 72 hours of incubation, Calcein AM solution (Molecular Probes) was added to a final concentration of 1 μg/ml and the cells were incubated for another hour. Free calcein fluorescence was then quantified using a Fluoroscan Ascent fluorometer (Microsystems), and the percentage of surviving cells in each well was calculated by dividing the OD obtained from each cell by the exposed cells by the mean OD obtained from control wells×100%, Finally, IC50 values (concentration causing a 50% decrease in cellular esterase activity) were calculated for each compound generated from dose-response curves (Krys̆tof et al., 2005, Bioorg. Med. Chem. Lett. 12, 3283-3286). The IC50 values reported here are averages obtained from at least three independent experiments, where the individual replication values fell within 20% of the average. […]

SMILES | pIC50
CS(=O)(=O)O.c1ccc(CNc2ncnc3nc[nH]c23)cc1 [BAP mesylate, 6-benzylaminopurine mesylate] | < 3.78
COc1cccc(CNc2ncnc3nc[nH]c23)c1 [3MeOBAP, 6-(3-methoxybenzylamino)purine] | < 3.78

tested on: skin fibroblasts BJ; assay: Cytotoxicity for non-cancer cells, resazurine reduction assay, BJ; conditions: human, 72 h
Protocol: It is used for viability testing of both bacterial and eukaryotic cells. […] Cultivation medium was DMEM with 10% FBS. Before the experiment, the cells were subcultured for 2 weeks. For the cytotoxicity evaluation, the cells were trypsinized and pipetted into 96 well plates (5000 cells per well in 80 microliters). After 24 hours, 5× concentrated solutions of the tested compounds in the medium were added. […] IC50 values were calculated from dose response curves using drc library for R programming environment.

SMILES | Cytotoxicity for Fibroblasts (GI20) BJ
Oc1ccccc1CNc1ncnc2nc[nH]c12 [ortho-topolin (oT), 6-(2-hydroxybenzylamino)purine] | 98.7 µM
Oc1cccc(CNc2ncnc3nc[nH]c23)c1 [meta-topolin (mT), 6-(3-hydroxybenzylamino)purine] | >100 µM
CS(=O)(=O)O.Oc1cccc(CNc2ncnc3nc[nH]c23)c1 [mT mesylate, 6-(3-hydroxybenzylamino)purine mesylate] | >100 µM
CS(=O)(=O)O.c1ccc(CNc2ncnc3nc[nH]c23)cc1 [BAP mesylate, 6-benzylaminopurine mesylate] | >100 µM
c1ccc(CNc2ncnc3nc[nH]c23)cc1 [BAP, 6-benzylaminopurine] | 137.5 µM

tested on: rose explants; assay: In vitro and post vitro multiplication and rooting of rose; assay type: in vivo, Rosa multiflora; conditions: Ex vitro, after four weeks of acclimatising in peat
Protocol: The aim of this experiment was to test whether the new compounds are of practical use in tissue culture practice. The multiplication rate was investigated and the post vitro effects on rooting were examined Rosa hybrida (pot rose cultivar) was cultured in 350 ml vessels with a screw on polycarbonate lid. Each culture vessel contained 100 ml autoclaved medium (120° C., 20 min). The cultures were maintained at 23±2° C. under a 16 h photoperiod at 40 μM·m^−2 s^−1 PAR. The basal medium (BMR) contained Murashige and Skoog (1962) macroelements, microelements and vitamins, 95 μM NaFeEDTA, 555 μM myo-inositol, 111 mM sucrose, 1.332 mM glycine, 684 μM L-glutamine and 7 g/l agar. This medium was supplemented with 10 μM BAP, mT, or 3MeOBAP, or the corresponding mesylate salts. The control medium didn't contain any cytokinin After a culture period of 8 weeks, the number of induced shoots per explant was determined, as well as root number/explant and total root length/explant. The roots were removed and the explants (shoot clusters) were planted in unfertilised peat. After four weeks of acclimatising in a fog unit, root number and root length was determined. As expected, a cytokinin free medium yielded almost no new shoots. The original shoot explant grew out as a good quality single shoot that rooted very well. […] Explants growing on cytokininin mesylates were characterized by a high multiplication index (a large number of new shoots) and were more rooted in comparison with free bases. The use of cytokinin mesylates led to an increase in all monitored parameters in plant culture compared to free cytokinin bases.

SMILES | Number of roots per plant | Overall length of plant (cm)
Oc1cccc(CNc2ncnc3nc[nH]c23)c1 [meta-topolin (mT), 6-(3-hydroxybenzylamino)purine] | 1.4 | 3.8 cm
CS(=O)(=O)O.Oc1cccc(CNc2ncnc3nc[nH]c23)c1 [mT mesylate, 6-(3-hydroxybenzylamino)purine mesylate] | 1.8 | 4.3 cm
CS(=O)(=O)O.c1ccc(CNc2ncnc3nc[nH]c23)cc1 [BAP mesylate, 6-benzylaminopurine mesylate] | 0.9 | 1.4 cm
c1ccc(CNc2ncnc3nc[nH]c23)cc1 [BAP, 6-benzylaminopurine] | rooted badly | 1.1 cm
COc1cccc(CNc2ncnc3nc[nH]c23)c1 [3MeOBAP, 6-(3-methoxybenzylamino)purine] | 1.7 | 4.1 cm

same assay, conditions: Ex vitro, after four weeks of acclimatising in peat; listed as 6-benzylaminopurine

SMILES | Number of roots per plant
c1ccc(CNc2ncnc3nc[nH]c23)cc1 [BAP, 6-benzylaminopurine] | 0.6

same assay, conditions: In vitro, 10 μM cytokinin, 8 weeks

SMILES | Number of new shoots per explant | Number of roots per explant | Overall length of explant (cm) | number of flowers per explant
Oc1cccc(CNc2ncnc3nc[nH]c23)c1 [meta-topolin (mT), 6-(3-hydroxybenzylamino)purine] | 2.1 | 0.0 | 0.0 cm | 0.16
CS(=O)(=O)O.Oc1cccc(CNc2ncnc3nc[nH]c23)c1 [mT mesylate, 6-(3-hydroxybenzylamino)purine mesylate] | 2.4 | 0.0 | 0.0 cm | 0.17
CS(=O)(=O)O.c1ccc(CNc2ncnc3nc[nH]c23)cc1 [BAP mesylate, 6-benzylaminopurine mesylate] | 4.1 | 0.0 | 0.0 cm | 0.00
c1ccc(CNc2ncnc3nc[nH]c23)cc1 [BAP, 6-benzylaminopurine] | high shoot multiplication rate | 0.0 | 0.0 cm | 0.00
COc1cccc(CNc2ncnc3nc[nH]c23)c1 [3MeOBAP, 6-(3-methoxybenzylamino)purine] | 4.3 | 0.0 | 0.0 cm | 0.03

same assay, conditions: In vitro, 10 μM cytokinin, 8 weeks; listed as 6-benzylaminopurine

SMILES | Number of new shoots per explant
c1ccc(CNc2ncnc3nc[nH]c23)cc1 [BAP, 6-benzylaminopurine] | 3.8
